# Assay results published in ChEMBL document CHEMBL1201862, “PubChem BioAssay data set” (2004).
#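 Method: 48-hour compound exposure of cells in 96-well plates, five concentrations, linear interpolation of endpoints. GI50: concentration for 50% inhibition of growth.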 Active and inactive are the calls of the source. Cut-off read from the data, not from the text of the source: active = GI50 up to about 1.1 µM and inactive = higher.
# How the values were obtained:
# Test in all cases: NCI anticancer screen, dose series, 48 h
# ACHN = tested on: ACHN
# MOLT-4 = tested on: MOLT-4
# SN12C = tested on: SN12C
# HOP-62 = tested on: HOP-62
# LOX IMVI = tested on: LOX IMVI
# K562 = tested on: K562
# KM12 = tested on: KM12
# HCT-116 = tested on: HCT-116
# A549 = tested on: A549
# OVCAR-3 = tested on: OVCAR-3
# NCI-H23 = tested on: NCI-H23
# HL-60 = tested on: HL-60
# SF-295 = tested on: SF-295
# RXF 393 = tested on: RXF 393
# SF-539 = tested on: SF-539
# HCT-15 = tested on: HCT-15
# SK-MEL-2 = tested on: SK-MEL-2
# NCI-H522 = tested on: NCI-H522
# DU-145 = tested on: DU-145
# BT-549 = tested on: BT-549
Compound,GI50 (ACHN),GI50 (MOLT-4),GI50 (SN12C),GI50 (HOP-62),GI50 (LOX IMVI),GI50 (K562),GI50 (KM12),GI50 (HCT-116),GI50 (A549),GI50 (OVCAR-3),GI50 (NCI-H23),GI50 (HL-60),GI50 (SF-295),GI50 (RXF 393),GI50 (SF-539),GI50 (HCT-15) [µM],GI50 (SK-MEL-2),GI50 (NCI-H522),GI50 (DU-145),GI50 (BT-549)
O=C(/C=C/c1ccc(Cl)c(Cl)c1)c1ccc2ccccc2c1,> 100 µM (inactive),48.9 µM (inactive),19.7 µM (inactive),> 100 µM (inactive),> 100 µM (inactive),> 100 µM (inactive),> 100 µM (inactive),> 100 µM (inactive),> 100 µM (inactive),> 100 µM (inactive),> 100 µM (inactive),32.7 µM (inactive),> 100 µM (inactive),> 100 µM (inactive),> 100 µM (inactive),> 100,> 100 µM (inactive),88.5 µM (inactive),,
CCOc1ccc(NC(=O)/C(=C/c2ccccc2)C(C)=O)cc1,15.3 µM (inactive),3.73 µM (inactive),13.2 µM (inactive),16.3 µM (inactive),7.14 µM (inactive),5.27 µM (inactive),7.1 µM (inactive),4.94 µM (inactive),22.2 µM (inactive),12.5 µM (inactive),10.9 µM (inactive),2.32 µM (inactive),13.5 µM (inactive),5.32 µM (inactive),10.1 µM (inactive),8.99,13.2 µM (inactive),2.12 µM (inactive),,
C[N+](C)(C)CC(=O)N/N=C(/C(=O)Nc1ccc(Br)cc1)C1C(=O)NC(=O)NC1=O,> 100 µM (inactive),> 100 µM (inactive),> 100 µM (inactive),> 100 µM (inactive),> 100 µM (inactive),> 100 µM (inactive),> 100 µM (inactive),> 100 µM (inactive),> 100 µM (inactive),> 100 µM (inactive),> 100 µM (inactive),> 100 µM (inactive),> 100 µM (inactive),> 100 µM (inactive),> 100 µM (inactive),> 100,> 100 µM (inactive),> 100 µM (inactive),,
COCC1OC([P+](c2ccccc2)(c2ccccc2)c2ccccc2)CC(OC)C1OC (centres undefined),74.6 µM (inactive),58.1 µM (inactive),29.1 µM (inactive),,,34.2 µM (inactive),34.5 µM (inactive),32.6 µM (inactive),,22.7 µM (inactive),48.6 µM (inactive),,34.2 µM (inactive),27.2 µM (inactive),,> 100,24.1 µM (inactive),,32.2 µM (inactive),
Cc1nc2c(Br)cc(Br)cc2c(=O)n1-c1ccccc1N,39.7 µM (inactive),21.9 µM (inactive),29.9 µM (inactive),70.5 µM (inactive),27.5 µM (inactive),29.8 µM (inactive),51.5 µM (inactive),23.4 µM (inactive),33.5 µM (inactive),63.5 µM (inactive),,19.9 µM (inactive),53 µM (inactive),,35.2 µM (inactive),35.8,19.2 µM (inactive),,56.6 µM (inactive),27.5 µM (inactive)
CC1(C)CC(=O)C(=CNc2nc(-c3ccc(Br)cc3)cs2)C(=O)C1,37 µM (inactive),27.9 µM (inactive),39.7 µM (inactive),31.3 µM (inactive),20.9 µM (inactive),,34 µM (inactive),26.5 µM (inactive),51.4 µM (inactive),22.3 µM (inactive),25.8 µM (inactive),27.7 µM (inactive),39 µM (inactive),,24.8 µM (inactive),21.2,19.4 µM (inactive),,43.9 µM (inactive),17.7 µM (inactive)
N#C/C(C(=S)Nc1ccccc1)=C(/N)N1CCCC1,> 100 µM (inactive),> 100 µM (inactive),> 100 µM (inactive),> 100 µM (inactive),> 100 µM (inactive),> 100 µM (inactive),> 100 µM (inactive),> 100 µM (inactive),> 100 µM (inactive),> 100 µM (inactive),> 100 µM (inactive),> 100 µM (inactive),> 100 µM (inactive),> 100 µM (inactive),> 100 µM (inactive),> 100,> 100 µM (inactive),> 100 µM (inactive),> 100 µM (inactive),
Cc1cc(C)c(-n2c(-c3ccccc3)cs/c2=N\N=C2C=C(C(C)(C)C)C(=O)C(C(C)(C)C)=C2)c(C)c1,90.2 µM (inactive),> 100 µM (inactive),> 100 µM (inactive),> 100 µM (inactive),83.8 µM (inactive),55.8 µM (inactive),> 100 µM (inactive),64.6 µM (inactive),> 100 µM (inactive),> 100 µM (inactive),60.5 µM (inactive),50.5 µM (inactive),> 100 µM (inactive),> 100 µM (inactive),> 100 µM (inactive),> 100,> 100 µM (inactive),85.1 µM (inactive),,
CC1=C2CN(C(=O)OCC(C)C)CCC2C2=C(C(=O)c3ccccc3C2=O)C1C (centres undefined),,> 10 µM (inactive),> 10 µM (inactive),> 10 µM (inactive),> 10 µM (inactive),> 10 µM (inactive),> 10 µM (inactive),,> 10 µM (inactive),,6.53 µM (inactive),> 10 µM (inactive),> 10 µM (inactive),> 10 µM (inactive),,> 10,,,> 10 µM (inactive),
CC1N(O)C(c2ccccc2)C(c2ccccc2)=[N+]1[O-] (centres undefined),> 100 µM (inactive),> 100 µM (inactive),> 100 µM (inactive),> 100 µM (inactive),> 100 µM (inactive),> 100 µM (inactive),> 100 µM (inactive),> 100 µM (inactive),> 100 µM (inactive),> 100 µM (inactive),> 100 µM (inactive),> 100 µM (inactive),> 100 µM (inactive),> 100 µM (inactive),> 100 µM (inactive),> 100,> 100 µM (inactive),,,> 100 µM (inactive)
CCOC(=O)/C=C/CC(C)(C)CCOC(C)=O,> 10 µM (inactive),> 10 µM (inactive),> 10 µM (inactive),> 10 µM (inactive),> 10 µM (inactive),> 10 µM (inactive),> 10 µM (inactive),> 10 µM (inactive),> 10 µM (inactive),> 10 µM (inactive),> 10 µM (inactive),> 10 µM (inactive),> 10 µM (inactive),> 10 µM (inactive),> 10 µM (inactive),> 10,> 10 µM (inactive),> 10 µM (inactive),> 10 µM (inactive),
O=c1oc2ccccc2[n+]([O-])c1-c1ccccc1,> 100 µM (inactive),> 100 µM (inactive),> 100 µM (inactive),> 100 µM (inactive),> 100 µM (inactive),> 100 µM (inactive),> 100 µM (inactive),> 100 µM (inactive),> 100 µM (inactive),> 100 µM (inactive),> 100 µM (inactive),> 100 µM (inactive),> 100 µM (inactive),> 100 µM (inactive),> 100 µM (inactive),> 100,> 100 µM (inactive),36.6 µM (inactive),,
O=C(Nc1ccc(Cl)cc1)c1cc2c(cc1Cl)Sc1nccn1S2(=O)=O,75.5 µM (inactive),27.9 µM (inactive),49.7 µM (inactive),33.7 µM (inactive),> 100 µM (inactive),14.1 µM (inactive),> 100 µM (inactive),34.6 µM (inactive),> 100 µM (inactive),46.5 µM (inactive),,,29.2 µM (inactive),27.5 µM (inactive),50.2 µM (inactive),35.7,> 100 µM (inactive),57.1 µM (inactive),> 100 µM (inactive),
Cc1ccc(S(=O)(=O)c2ccc(C)cc2[N+](=O)[O-])cc1,> 100 µM (inactive),45.1 µM (inactive),> 100 µM (inactive),> 100 µM (inactive),82.8 µM (inactive),50.5 µM (inactive),> 100 µM (inactive),71.4 µM (inactive),> 100 µM (inactive),46.9 µM (inactive),53.7 µM (inactive),29.3 µM (inactive),79.4 µM (inactive),82 µM (inactive),> 100 µM (inactive),> 100,> 100 µM (inactive),43.7 µM (inactive),,
C=C/C=C(\NC(=O)C(Cl)(Cl)Cl)[Si](C)(C)C,> 100 µM (inactive),> 100 µM (inactive),> 100 µM (inactive),> 100 µM (inactive),> 100 µM (inactive),> 100 µM (inactive),> 100 µM (inactive),> 100 µM (inactive),> 100 µM (inactive),> 100 µM (inactive),> 100 µM (inactive),> 100 µM (inactive),> 100 µM (inactive),> 100 µM (inactive),> 100 µM (inactive),> 100,> 100 µM (inactive),> 100 µM (inactive),,
CC(C)[C@H]1C(=O)O[B@-](F)(c2ccccc2)/[N+]1=C\N(C)C,> 100 µM (inactive),> 100 µM (inactive),> 100 µM (inactive),> 100 µM (inactive),> 100 µM (inactive),> 100 µM (inactive),,> 100 µM (inactive),> 100 µM (inactive),> 100 µM (inactive),> 100 µM (inactive),> 100 µM (inactive),> 100 µM (inactive),,,> 100,,,> 100 µM (inactive),> 100 µM (inactive)
